Molecules are shown by their SMILES. Active and inactive are the calls of the source.

This passage reports AC50, IC50 and EC50 results from ChEMBL document CHEMBL1201862, “PubChem BioAssay data set” (2004).

Data set [1] has as its target Cytochrome P450 2D6 (Homo sapiens, UniProt P10635).
Data set [2] has as its target T1, Cytochrome P450 1A2 (Homo sapiens, UniProt P05177).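 Also: PubChem cytochrome P450 panel assay, CYP1A2 panel member.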
T1 sequence (P05177 whole entry): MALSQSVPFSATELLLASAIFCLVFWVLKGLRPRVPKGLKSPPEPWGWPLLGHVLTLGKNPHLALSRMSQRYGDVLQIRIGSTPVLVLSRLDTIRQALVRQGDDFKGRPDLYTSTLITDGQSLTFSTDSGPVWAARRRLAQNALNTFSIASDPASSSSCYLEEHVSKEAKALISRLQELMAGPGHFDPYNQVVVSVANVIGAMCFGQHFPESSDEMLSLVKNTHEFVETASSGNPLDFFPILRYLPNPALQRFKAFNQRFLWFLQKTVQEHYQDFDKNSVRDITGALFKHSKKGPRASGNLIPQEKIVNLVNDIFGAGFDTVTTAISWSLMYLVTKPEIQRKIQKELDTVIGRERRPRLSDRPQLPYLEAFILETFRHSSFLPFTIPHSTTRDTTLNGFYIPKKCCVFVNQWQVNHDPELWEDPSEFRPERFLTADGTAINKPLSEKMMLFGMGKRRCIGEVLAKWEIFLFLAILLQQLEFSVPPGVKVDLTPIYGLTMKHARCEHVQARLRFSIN

Data set [3] deals with Cytochrome P450 3A4 (Homo sapiens, UniProt P08684).
Chain of Cytochrome P450 3A4 (P08684 whole entry): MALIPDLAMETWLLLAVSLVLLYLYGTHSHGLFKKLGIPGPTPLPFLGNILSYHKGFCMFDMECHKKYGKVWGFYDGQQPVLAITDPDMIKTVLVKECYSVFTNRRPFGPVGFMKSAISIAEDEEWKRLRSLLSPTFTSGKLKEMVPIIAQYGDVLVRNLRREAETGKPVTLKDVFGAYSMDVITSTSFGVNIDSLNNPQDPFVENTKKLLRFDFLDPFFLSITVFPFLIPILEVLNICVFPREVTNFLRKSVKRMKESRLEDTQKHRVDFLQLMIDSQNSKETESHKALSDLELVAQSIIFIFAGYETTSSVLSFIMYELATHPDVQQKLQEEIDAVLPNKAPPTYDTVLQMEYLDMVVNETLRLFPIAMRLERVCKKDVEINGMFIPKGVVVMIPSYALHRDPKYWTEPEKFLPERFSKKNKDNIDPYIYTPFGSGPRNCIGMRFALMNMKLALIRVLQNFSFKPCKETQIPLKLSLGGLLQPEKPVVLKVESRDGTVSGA
Data set [4] addresses T2, Cytochrome P450 2C9 (Homo sapiens, UniProt P11712).
The target in data set [5] is T3, Aminopeptidase N (Plasmodium falciparum FcB1/Columbia, UniProt O96935).
T3 sequence (O96935 whole entry): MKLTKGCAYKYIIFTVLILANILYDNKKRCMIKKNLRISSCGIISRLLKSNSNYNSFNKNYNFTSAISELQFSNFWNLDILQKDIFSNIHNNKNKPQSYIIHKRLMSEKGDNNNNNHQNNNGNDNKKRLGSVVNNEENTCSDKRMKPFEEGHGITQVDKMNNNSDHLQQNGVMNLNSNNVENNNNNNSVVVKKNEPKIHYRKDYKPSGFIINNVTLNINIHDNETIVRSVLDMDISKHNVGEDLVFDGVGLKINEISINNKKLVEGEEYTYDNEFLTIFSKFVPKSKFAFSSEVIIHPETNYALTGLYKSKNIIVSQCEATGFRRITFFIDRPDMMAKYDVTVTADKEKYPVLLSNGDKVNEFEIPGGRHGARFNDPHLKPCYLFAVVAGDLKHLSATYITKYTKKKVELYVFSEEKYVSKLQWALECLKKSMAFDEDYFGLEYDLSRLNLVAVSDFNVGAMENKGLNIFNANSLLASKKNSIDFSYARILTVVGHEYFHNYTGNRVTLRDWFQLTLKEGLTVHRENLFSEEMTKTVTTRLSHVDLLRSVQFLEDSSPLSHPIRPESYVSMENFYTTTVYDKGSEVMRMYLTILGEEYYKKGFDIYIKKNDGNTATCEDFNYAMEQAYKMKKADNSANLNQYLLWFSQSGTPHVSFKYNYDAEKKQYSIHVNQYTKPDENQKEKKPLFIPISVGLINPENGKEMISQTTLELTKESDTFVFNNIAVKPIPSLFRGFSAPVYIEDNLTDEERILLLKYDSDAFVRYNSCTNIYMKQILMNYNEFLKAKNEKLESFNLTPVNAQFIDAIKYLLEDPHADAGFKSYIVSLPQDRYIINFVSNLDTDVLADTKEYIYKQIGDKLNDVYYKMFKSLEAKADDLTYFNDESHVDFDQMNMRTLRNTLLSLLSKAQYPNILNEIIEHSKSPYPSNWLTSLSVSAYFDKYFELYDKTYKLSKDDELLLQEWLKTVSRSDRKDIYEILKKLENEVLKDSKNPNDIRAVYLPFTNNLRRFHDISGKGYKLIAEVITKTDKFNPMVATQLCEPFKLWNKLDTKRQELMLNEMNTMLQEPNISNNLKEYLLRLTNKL
Nature of the data set: P. falciparum M1AAP inhibitors, biochemical, fluorogenic H-Leu-NHMec substrate, 1536-well (AID 1445). Also noted: species or system Plasmodium falciparum 3D7, 3D7.

Data set [6] deals with Cytochrome P450 2C19 (Homo sapiens, UniProt P33261). Nature of the data set: Cytochrome panel assay with activity outcomes. Panel member name: p450-cyp2c19 Compounds with AC50 equal or less than 10 uM are considered active. The following applies: read-out: AC50. In kind it is functional.
Chain of Cytochrome P450 2C19 (P33261 whole entry): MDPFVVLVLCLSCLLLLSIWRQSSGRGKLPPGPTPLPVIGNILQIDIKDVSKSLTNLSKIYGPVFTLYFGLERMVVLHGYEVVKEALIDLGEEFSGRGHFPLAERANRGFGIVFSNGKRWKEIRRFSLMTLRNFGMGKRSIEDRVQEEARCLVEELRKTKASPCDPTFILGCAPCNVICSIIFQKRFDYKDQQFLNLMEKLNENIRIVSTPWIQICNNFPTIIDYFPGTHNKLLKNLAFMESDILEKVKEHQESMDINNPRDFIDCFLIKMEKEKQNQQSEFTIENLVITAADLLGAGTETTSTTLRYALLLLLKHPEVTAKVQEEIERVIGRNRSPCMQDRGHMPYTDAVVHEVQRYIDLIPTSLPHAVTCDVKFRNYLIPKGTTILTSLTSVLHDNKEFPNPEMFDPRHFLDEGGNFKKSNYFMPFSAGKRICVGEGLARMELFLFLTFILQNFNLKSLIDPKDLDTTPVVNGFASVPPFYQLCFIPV
Data set [7] concerns the target Genome polyprotein (dengue virus type 2, UniProt P29990). Nature of the data set: Dengue-2 NS5 methyltransferase inhibitors, primary screen, biochemical, confirmation dose response (AID 588689). Format: functional.
Data set [8] addresses T4, Replicative DNA helicase DnaB (Mycobacterium tuberculosis, UniProt P9WMR3).
T4 sequence (P9WMR3 whole entry): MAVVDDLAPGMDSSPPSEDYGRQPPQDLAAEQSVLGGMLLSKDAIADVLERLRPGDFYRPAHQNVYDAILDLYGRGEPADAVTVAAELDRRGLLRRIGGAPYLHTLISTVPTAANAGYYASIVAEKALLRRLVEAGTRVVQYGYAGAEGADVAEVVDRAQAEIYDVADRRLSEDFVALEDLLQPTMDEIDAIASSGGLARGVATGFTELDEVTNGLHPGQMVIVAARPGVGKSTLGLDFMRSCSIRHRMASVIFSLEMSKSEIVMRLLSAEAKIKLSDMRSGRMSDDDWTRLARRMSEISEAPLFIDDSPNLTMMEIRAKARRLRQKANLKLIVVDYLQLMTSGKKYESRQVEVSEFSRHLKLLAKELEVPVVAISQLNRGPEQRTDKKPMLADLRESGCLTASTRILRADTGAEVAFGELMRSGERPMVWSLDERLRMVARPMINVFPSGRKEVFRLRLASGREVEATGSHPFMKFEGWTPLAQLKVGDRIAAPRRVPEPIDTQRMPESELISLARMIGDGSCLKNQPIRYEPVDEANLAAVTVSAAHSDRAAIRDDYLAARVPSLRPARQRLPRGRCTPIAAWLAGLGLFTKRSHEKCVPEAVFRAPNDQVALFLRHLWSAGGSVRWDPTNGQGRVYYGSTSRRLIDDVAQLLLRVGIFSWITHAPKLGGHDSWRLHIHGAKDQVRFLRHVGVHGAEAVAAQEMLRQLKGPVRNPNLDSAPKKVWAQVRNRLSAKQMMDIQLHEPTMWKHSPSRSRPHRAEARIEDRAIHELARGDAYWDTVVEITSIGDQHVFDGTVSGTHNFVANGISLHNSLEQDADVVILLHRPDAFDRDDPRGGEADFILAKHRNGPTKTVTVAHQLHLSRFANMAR
Nature of the data set: DnaB intein splicing inhibitors, dose response, biochemical, cell-free fluorescence (AID 449749). Format: functional.

Data set [9] has as its target T5, Protein RecA (Mycobacterium tuberculosis, UniProt P9WHJ3).
T5 sequence (P9WHJ3 whole entry): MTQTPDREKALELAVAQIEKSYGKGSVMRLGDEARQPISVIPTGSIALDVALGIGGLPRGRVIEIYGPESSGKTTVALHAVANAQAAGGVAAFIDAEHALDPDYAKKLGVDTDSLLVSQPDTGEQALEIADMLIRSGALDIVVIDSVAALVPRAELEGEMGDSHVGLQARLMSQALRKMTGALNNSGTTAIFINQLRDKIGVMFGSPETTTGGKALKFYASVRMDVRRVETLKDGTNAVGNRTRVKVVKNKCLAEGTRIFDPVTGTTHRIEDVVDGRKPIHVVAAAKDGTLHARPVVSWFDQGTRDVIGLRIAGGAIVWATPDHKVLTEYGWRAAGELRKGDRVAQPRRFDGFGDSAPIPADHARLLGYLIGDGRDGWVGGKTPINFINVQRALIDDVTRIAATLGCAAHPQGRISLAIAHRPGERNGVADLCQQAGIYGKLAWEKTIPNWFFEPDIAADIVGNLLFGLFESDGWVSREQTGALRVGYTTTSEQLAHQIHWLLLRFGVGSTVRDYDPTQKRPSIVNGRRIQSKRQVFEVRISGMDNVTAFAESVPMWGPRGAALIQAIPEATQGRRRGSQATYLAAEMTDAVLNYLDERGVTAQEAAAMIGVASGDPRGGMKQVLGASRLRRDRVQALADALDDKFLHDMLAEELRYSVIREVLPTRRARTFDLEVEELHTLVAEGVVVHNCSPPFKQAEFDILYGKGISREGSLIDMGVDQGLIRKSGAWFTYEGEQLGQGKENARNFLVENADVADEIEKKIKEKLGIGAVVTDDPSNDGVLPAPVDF
Nature of the data set: Fluorescence Cell-Free Homogeneous Dose Retest to Identify Inhibitors of RecA-Intein Splicing Activity. [Related pubchem assays (depositor defined):AID2097, AID2223, AID489010, AID492950]. Format: functional.

The target of data set [10] is T6, Rac GTPase-activating protein 1 (Homo sapiens, UniProt Q9H0H5).
T6 sequence (Q9H0H5 whole entry): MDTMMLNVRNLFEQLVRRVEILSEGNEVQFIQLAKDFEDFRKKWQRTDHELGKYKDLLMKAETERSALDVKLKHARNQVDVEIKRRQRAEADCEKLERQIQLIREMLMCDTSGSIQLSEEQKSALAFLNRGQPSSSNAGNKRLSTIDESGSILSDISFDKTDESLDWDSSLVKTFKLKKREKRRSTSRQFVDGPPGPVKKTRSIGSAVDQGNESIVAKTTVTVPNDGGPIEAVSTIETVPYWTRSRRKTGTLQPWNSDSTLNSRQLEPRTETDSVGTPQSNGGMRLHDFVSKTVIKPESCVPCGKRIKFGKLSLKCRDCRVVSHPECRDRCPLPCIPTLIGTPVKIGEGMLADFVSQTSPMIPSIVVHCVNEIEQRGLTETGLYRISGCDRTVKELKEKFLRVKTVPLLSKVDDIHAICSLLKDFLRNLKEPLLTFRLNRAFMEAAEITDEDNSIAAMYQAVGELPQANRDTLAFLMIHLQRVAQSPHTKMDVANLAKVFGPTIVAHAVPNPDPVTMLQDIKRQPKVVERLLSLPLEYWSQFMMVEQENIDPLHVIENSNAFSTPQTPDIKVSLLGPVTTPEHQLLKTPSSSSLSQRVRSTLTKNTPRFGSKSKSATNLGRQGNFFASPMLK
Nature of the data set: MgcRacGAP GTPase-activating activity inhibitors, confirmation, biochemical, ADP Hunter fluorescence, primary and confirmatory (AID 624330). In kind it is functional.

The target of data set [11] is T2, Cytochrome P450 2C9. This is another data set of the same source.

T2 sequence (P11712 whole entry): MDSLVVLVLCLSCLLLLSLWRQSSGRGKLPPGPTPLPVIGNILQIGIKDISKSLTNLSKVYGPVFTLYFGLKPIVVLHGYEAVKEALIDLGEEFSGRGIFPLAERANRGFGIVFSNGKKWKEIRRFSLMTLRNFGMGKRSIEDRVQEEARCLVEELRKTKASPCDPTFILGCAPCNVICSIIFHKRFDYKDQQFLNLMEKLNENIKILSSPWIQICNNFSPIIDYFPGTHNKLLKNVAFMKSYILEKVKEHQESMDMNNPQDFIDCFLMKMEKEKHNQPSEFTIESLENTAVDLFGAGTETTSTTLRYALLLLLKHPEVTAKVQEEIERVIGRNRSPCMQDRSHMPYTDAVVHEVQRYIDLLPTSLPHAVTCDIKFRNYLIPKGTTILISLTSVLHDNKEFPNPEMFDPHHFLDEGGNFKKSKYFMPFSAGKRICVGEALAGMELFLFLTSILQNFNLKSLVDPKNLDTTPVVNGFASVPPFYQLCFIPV
Chain of Genome polyprotein (P29990 2492-3391 limits assumed): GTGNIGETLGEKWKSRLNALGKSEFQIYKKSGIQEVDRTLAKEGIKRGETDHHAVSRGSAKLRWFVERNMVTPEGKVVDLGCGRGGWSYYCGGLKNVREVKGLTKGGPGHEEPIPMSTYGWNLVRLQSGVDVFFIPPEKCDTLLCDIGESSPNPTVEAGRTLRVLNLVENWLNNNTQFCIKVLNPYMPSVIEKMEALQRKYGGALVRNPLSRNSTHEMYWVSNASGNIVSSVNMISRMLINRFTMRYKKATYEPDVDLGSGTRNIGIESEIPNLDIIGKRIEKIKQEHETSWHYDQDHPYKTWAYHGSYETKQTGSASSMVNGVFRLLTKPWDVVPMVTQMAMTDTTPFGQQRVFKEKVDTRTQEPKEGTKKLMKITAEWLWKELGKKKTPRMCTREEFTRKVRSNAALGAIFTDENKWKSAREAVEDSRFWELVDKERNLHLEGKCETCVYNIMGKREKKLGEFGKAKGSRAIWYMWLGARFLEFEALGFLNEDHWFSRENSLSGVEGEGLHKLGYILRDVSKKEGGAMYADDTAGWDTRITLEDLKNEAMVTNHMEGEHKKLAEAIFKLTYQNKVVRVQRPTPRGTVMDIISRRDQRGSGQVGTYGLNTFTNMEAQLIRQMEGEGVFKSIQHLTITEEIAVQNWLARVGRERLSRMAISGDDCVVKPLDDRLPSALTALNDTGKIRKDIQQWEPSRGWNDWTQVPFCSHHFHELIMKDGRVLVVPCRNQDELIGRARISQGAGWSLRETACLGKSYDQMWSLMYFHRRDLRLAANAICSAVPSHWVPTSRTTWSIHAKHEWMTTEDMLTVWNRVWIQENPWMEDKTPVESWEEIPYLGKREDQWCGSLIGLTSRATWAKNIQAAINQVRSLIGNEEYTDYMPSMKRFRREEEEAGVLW
Chain of Cytochrome P450 2D6 (P10635 whole entry): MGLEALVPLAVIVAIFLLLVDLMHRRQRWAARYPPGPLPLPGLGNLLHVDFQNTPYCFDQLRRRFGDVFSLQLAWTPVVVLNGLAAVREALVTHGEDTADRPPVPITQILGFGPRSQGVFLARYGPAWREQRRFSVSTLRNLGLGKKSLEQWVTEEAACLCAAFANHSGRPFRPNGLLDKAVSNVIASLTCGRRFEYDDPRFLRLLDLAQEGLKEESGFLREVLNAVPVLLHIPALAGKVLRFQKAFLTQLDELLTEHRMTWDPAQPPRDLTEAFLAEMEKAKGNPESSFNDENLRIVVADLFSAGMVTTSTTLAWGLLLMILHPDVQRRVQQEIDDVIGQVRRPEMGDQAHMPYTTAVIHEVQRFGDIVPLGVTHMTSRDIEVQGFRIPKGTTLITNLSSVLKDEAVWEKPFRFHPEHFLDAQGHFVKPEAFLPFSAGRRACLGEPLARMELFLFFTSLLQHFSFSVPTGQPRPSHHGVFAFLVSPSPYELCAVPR

In the case of `CN1[C@@H]2CC[C@H]1CC(O[C@@H](c1ccccc1)c1ccccc1N)C2` (stereo partly drawn), the AC50 in data set [1] was 25.1 µM (inconclusive); in data set [2] it was 15.8 µM (inconclusive); in [3] it was 12.6 µM (inconclusive); in [4] it was “inconclusive”.
On to `COC(=O)c1ccccc1NC(=O)c1ccc(COc2ccc(C)c(C)c2)o1`, for which the figures for the AC50 in [3] and in data set [4] were 1.41 µM (inconclusive) and “inconclusive”, respectively.
`COc1ccc2cc(C#N)c(SCC(=O)N3CCCC3)nc2c1`: the IC50 in data set [5] is 55.7 µM (active).
In the case of `Cc1cc(C)cc(OCC(=O)Nc2ccc3c4c(cccc24)CC3)c1`, the half-maximal activity concentration (AC50) in data set [6] was 11.2 µM (inconclusive); in data set [2] it was 2.51 µM (inconclusive); in [4] it was “inconclusive”.
As for `CC(C)(C)NC(=O)C(Cc1ccccc1)NS(=O)(=O)c1ccc2c(c1)CCC(=O)N2` (stereo not drawn), the AC50 in data set [1] was 12.6 µM (inconclusive); in data set [4], “inconclusive”.
With `O=C(Nn1c(-c2ccccc2)nc2ccccc2c1=O)c1cccs1`, the IC50 in [5] is 51.1 µM (active).
Turning to `Cc1nc(S(=O)(=O)c2cccc(Cl)c2)nc2c1CCC2`, the AC50 in data set [2] is 12.6 µM (inconclusive); in [4], “inconclusive”.
As for `CCOC(=O)COc1ccc(Br)cc1/C=C\c1nc(O)nc(O)c1[N+](=O)[O-]`, in data set [5], the IC50 was 36.5 µM (active).
On to `Cc1ccc(S(=O)(=O)NN2C(=O)/C(=C/c3cccs3)SC2=S)cc1`, for which the IC50 in data set [5] is 30.9 µM (active); in data set [7], 35.3 µM (active).
Regarding `CC1=NN(c2ccccc2)C(=O)/C1=C/c1cccc(C)c1`, in data set [8], the AC50 was 3.59 µM (active). In addition, the EC50 in [9] is 1.58 µM (active). In addition, the IC50 in [7] was 50.5 µM (active).
Turning to `CCOc1ccc(NC(=O)CCNS(=O)(=O)c2ccc3c(c2)c(=O)n(C)c(=O)n3C)cc1`, the AC50 is 2.51 µM (inconclusive) in [2] and “inconclusive” in data set [4].
Regarding `Cc1c(NC(=S)N/N=C/c2ccc(O)cc2)c(=O)n(-c2ccccc2)n1C`, the IC50 in data set [10] is 55.6 µM (active). In addition, the concentration at half-maximal activity (AC50) result in [4] is reported as “inconclusive”.
`O=C(N/N=C1\CCCc2ccccc21)c1ccc([N+](=O)[O-])cc1Cl`: the half-maximal activity concentration (AC50) result in data set [4] was “inconclusive”.
For `N=C(N)NC(=O)Cc1c(Cl)cccc1Cl` [GUANFACINE], the figures for the AC50 in data set [11] and in data set [4] were 31.6 µM (inconclusive) and “inconclusive”, respectively.

Broadly, the AC50 is the concentration giving half of the maximal activity seen. By IC50 is commonly meant the point on the concentration scale where inhibition reaches its midpoint. As a reminder, the EC50 is the concentration needed to bring the measured effect to its halfway point.
